Measurements reported in patent US20240285571A1, “METHODS OF TREATING BONE INFECTIONS” (MICROBION CORPORATION, priority 2020, published 2024).
Where two headings read alike, the source gives them in different places.

Tests used:
Type in all cases: cell-based
Acinetobacter baumannii = assay: Broth microdilution MIC (Example 6); details: Acinetobacter baumannii
Summary of the method: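 CLSI broth microdilution in cation-adjusted Mueller Hinton broth, test agents 0.06-64 μg/mL from DMSO stocks, inoculum approx. 5×10^5 CFU/mL. Incubation 35° C for 16–20 hr; MIC taken as lowest concentration inhibiting visible growth.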

Klebsiella pneumoniae = assay: Broth microdilution MIC (Example 6); details: Klebsiella pneumoniae, read-out: MIC
Description: (§1) Test Compounds: The test agents BisEDT (MB-1-B3; Lot No. ED268-1-11-01), MB-2B, and MB-6 were stored at room temperature, in the dark, until assayed.
(§2) For testing daptomycin, calcium was supplemented with […] Ca^2+, resulting in a final concentration of […] Ca^2+ (2, 3).
(§3) MIC Assay Procedure: MIC values were determined using a broth microdilution procedure described by CLSI (2, 3).
(§4) The Biomek 2000 was then used to make 2-fold serial dilutions in the mother plates from column 1 through column 11. The wells of column 12 contained no drug and served as the organism growth control wells for the assay.
(§5) The test panels were prepared on the Biomek FX instrument which transferred 2 μL of drug solution from each well of a mother plate to the corresponding well of each daughter plate in a single step.
(§6) A standardized inoculum of each test organism was prepared per CLSI methods to equal a 0.5 McFarland standard, followed by a dilution of 1:20. The plates were then inoculated with 10 μL of the diluted inoculum using the Biomek 2000 from low to high drug concentration resulting in a final concentration of approximately 5×10^5 CFU/mL.
(§7) Plates were stacked 3-4 high, covered with a lid on the top plate, placed into plastic bags, and incubated at 35° C. for 16 to 20 hr (vancomycin was read for S. aureus after 24 hr incubation time). The MIC was recorded as the lowest concentration of drug that inhibited visible growth of the organism.

Pseudomonas aeruginosa = assay: Broth microdilution MIC (Example 6); details: Pseudomonas aeruginosa, read-out: MIC
Description: as §1, §2, §3, §4, §5, §6, §7

Escherichia coli = assay: Broth microdilution MIC (Example 6); details: Escherichia coli, read-out: MIC
Description: as §1, §2, §3, §4, §5, §6, §7

[1] = tested on: relevant ATCC QC organisms; assay: Broth microdilution MIC, QC (Example 6)
Summary of the method: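 QC strains were tested per CLSI broth microdilution in cation-adjusted Mueller Hinton broth, with Ca2+ supplemented for daptomycin, at about 5×10^5 CFU/mL. Incubation was at 35° C for 16–20 hr, or 24 hr for vancomycin against S. aureus. The MIC was the lowest concentration inhibiting visible growth.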

[2] = A. baumannii isolate CDC 273, β-lactamase type ESBL/OXA, read-out: MIC
[3] = A. baumannii isolate CDC 274, β-lactamase type ESBL/OXA, read-out: MIC
[4] = A. baumannii isolate CDC 275, β-lactamase type ESBL/OXA, read-out: MIC
[5] = A. baumannii isolate CDC 277, β-lactamase type ESBL/OXA, read-out: MIC
[6] = A. baumannii isolate CDC 284, β-lactamase type ESBL/OXA, read-out: MIC
[7] = A. baumannii isolate CDC 307, β-lactamase type OXA, read-out: MIC
[8] = A. baumannii isolate CDC 308, β-lactamase type ESBL/OXA, read-out: MIC
[9] = A. baumannii isolate CDC 311, β-lactamase type OXA, read-out: MIC
[10] = A. baumannii isolate CDC 312, β-lactamase type OXA, read-out: MIC
[11] = A. baumannii isolate CDC 313, β-lactamase type ESBL/OXA, read-out: MIC
[12] = NCTC13304, A. baumannii isolate NCTC 13304, β-lactamase type OXA, read-out: MIC
[13] = ATCCBAA1705, K. pneumoniae ATCC BAA-1705, ESBL/KPC
[14] = K. pneumoniae CDC 113, ESBL/KPC
[15] = K. pneumoniae CDC 115, ESBL/KPC
[16] = K. pneumoniae CDC 120, ESBL/KPC
[17] = K. pneumoniae CDC 126, ESBL/KPC
[18] = K. pneumoniae CDC 129, ESBL/KPC
[19] = K. pneumoniae CDC 135, ESBL/VIM
[20] = K. pneumoniae CDC 138, ESBL/NDM
[21] = K. pneumoniae CDC 158, ESBL/NDM/OXA
[22] = P. aeruginosa isolate CDC 230, β-lactamase type VIM/OXA
[23] = P. aeruginosa isolate CDC 231, β-lactamase type KPC/OXA
[24] = P. aeruginosa isolate CDC 241, β-lactamase type IMP/OXA
[25] = P. aeruginosa isolate CDC 246, β-lactamase type NDM/OXA
[26] = P. aeruginosa isolate CDC 250, β-lactamase type NDM/OXA
[27] = P. aeruginosa isolate CDC 356, β-lactamase type KPC
[28] = P. aeruginosa isolate CDC 439, β-lactamase type IMP
[29] = P. aeruginosa isolate CDC 444, β-lactamase type VIM
[30] = P. aeruginosa isolate CDC 457, β-lactamase type VIM
[31] = P. aeruginosa isolate CDC 516, β-lactamase type KPC/AmpC
[32] = ATCC35218, E. coli ATCC 35218, ESBL
[33] = ATCCBAA2471, E. coli ATCC BAA-2471, NDM
[34] = Escherichia coli, ATCC25922, E. coli ATCC 25922, read-out: MIC
[35] = Escherichia coli, ATCC35218, E. coli ATCC 35218, read-out: MIC
[36] = Klebsiella pneumoniae, ATCCBAA1705, K. pneumoniae ATCC BAA-1705, read-out: MIC
[37] = Pseudomonas aeruginosa, ATCC27853, P. aeruginosa ATCC 27853, read-out: MIC

Measured: MIC

NCC[C@H](O)C(=O)N[C@@H]1C[C@H](N)[C@@H](O[C@H]2O[C@H](CN)[C@@H](O)[C@H](O)[C@H]2O)[C@H](O)[C@H]1O[C@H]1O[C@H](CO)[C@@H](O)[C@H](N)[C@H]1O [Amikacin]
> 64 µg/mL: Acinetobacter baumannii; [2] | Acinetobacter baumannii; [4] | Acinetobacter baumannii; [7] | Acinetobacter baumannii; [8] | Acinetobacter baumannii; [9] | Klebsiella pneumoniae; [20] | Pseudomonas aeruginosa; [22] | Pseudomonas aeruginosa; [25] | Pseudomonas aeruginosa; [26] | Pseudomonas aeruginosa; [28] | Pseudomonas aeruginosa; [29] | Escherichia coli; E. coli CDC 118, ESBL/NDM | Escherichia coli; E. coli CDC 435, NDM | Escherichia coli; E. coli CDC 503, ESBL/NDM
8 µg/mL: Pseudomonas aeruginosa; [23]
4 µg/mL: Acinetobacter baumannii; [11] | Escherichia coli; E. coli CDC 451, KPC
64 µg/mL: Escherichia coli; [33] | Escherichia coli; E. coli MMX 5756, ESBL
2 µg/mL: Klebsiella pneumoniae; [17] | Klebsiella pneumoniae; [21] | Pseudomonas aeruginosa; [27] | Pseudomonas aeruginosa; [30] | Pseudomonas aeruginosa; [31] | [1]; [37]
0.5 µg/mL: Acinetobacter baumannii; [12] | Klebsiella pneumoniae; [15] | Klebsiella pneumoniae; K. pneumoniae MMX 9029, ESBL | Escherichia coli; E. coli MMX 5745, KPC
1 µg/mL: Acinetobacter baumannii; [10] | Escherichia coli; [32] | Escherichia coli; E. coli CDC 114, ESBL/KPC | Escherichia coli; E. coli MMX 5758, ESBL | [1]; [34] | [1]; [35]
32 µg/mL: Acinetobacter baumannii; [6] | Klebsiella pneumoniae; [18] | Pseudomonas aeruginosa; [24]
16 µg/mL: Acinetobacter baumannii; [3] | Acinetobacter baumannii; [5] | Klebsiella pneumoniae; [13] | Klebsiella pneumoniae; K. pneumoniae CDC 112, KPC | Klebsiella pneumoniae; [14] | Klebsiella pneumoniae; [16] | Klebsiella pneumoniae; [19] | Escherichia coli; E. coli MMX 5755, ESBL | [1]; [36]

CCC[C@@H]1C[C@@H](C(=O)N[C@@H]([C@H]2O[C@H](SC)[C@H](O)[C@@H](O)[C@H]2O)[C@H](C)Cl)N(C)C1 [CLI]
0.25 µg/mL: [1]; S. aureus ATCC 29213

CC(C)(O/N=C(\C(=O)N[C@@H]1C(=O)N2C(C(=O)[O-])=C(C[n+]3ccccc3)CS[C@H]12)c1csc(N)n1)C(=O)O [Ceftazidime]
0.12 µg/mL: Escherichia coli; [32] | [1]; [35]
64 µg/mL: Acinetobacter baumannii; [2] | Acinetobacter baumannii; [6] | Acinetobacter baumannii; [7] | Acinetobacter baumannii; [8] | Pseudomonas aeruginosa; [22] | Pseudomonas aeruginosa; [27] | Pseudomonas aeruginosa; [31] | Escherichia coli; E. coli CDC 451, KPC
16 µg/mL: Escherichia coli; E. coli MMX 5758, ESBL
2 µg/mL: [1]; [37]
32 µg/mL: Pseudomonas aeruginosa; [29] | Pseudomonas aeruginosa; P. aeruginosa isolate CDC 518, β-lactamase type KPC/AmpC | Escherichia coli; E. coli MMX 5745, KPC
4 µg/mL: Klebsiella pneumoniae; [17] | Klebsiella pneumoniae; K. pneumoniae MMX 9029, ESBL
> 64 µg/mL: Acinetobacter baumannii; [3] | Acinetobacter baumannii; [4] | Acinetobacter baumannii; [5] | Acinetobacter baumannii; [9] | Acinetobacter baumannii; [10] | Acinetobacter baumannii; [11] | Acinetobacter baumannii; [12] | Klebsiella pneumoniae; [13] | Klebsiella pneumoniae; K. pneumoniae CDC 112, KPC | Klebsiella pneumoniae; [14] | Klebsiella pneumoniae; [15] | Klebsiella pneumoniae; [16] | Klebsiella pneumoniae; [18] | Klebsiella pneumoniae; [19] | Klebsiella pneumoniae; [20] | Klebsiella pneumoniae; [21] | Pseudomonas aeruginosa; [23] | Pseudomonas aeruginosa; [24] | Pseudomonas aeruginosa; [25] | Pseudomonas aeruginosa; [26] | Pseudomonas aeruginosa; [28] | Pseudomonas aeruginosa; [30] | Escherichia coli; [33] | Escherichia coli; E. coli CDC 114, ESBL/KPC | Escherichia coli; E. coli CDC 118, ESBL/NDM | Escherichia coli; E. coli CDC 435, NDM | Escherichia coli; E. coli CDC 503, ESBL/NDM | Escherichia coli; E. coli MMX 5755, ESBL | Escherichia coli; E. coli MMX 5756, ESBL | [1]; [36]
0.25 µg/mL: [1]; [34]

CC(S)C(C)S.[Bi] (centres unmarked) [MB-6, bismuth-2,3-butanedithiol]
2 µg/mL: Klebsiella pneumoniae; K. pneumoniae MMX 9029, ESBL | Escherichia coli; E. coli MMX 5755, ESBL
0.5 µg/mL: Acinetobacter baumannii; A. baumannii isolate CDC 273, β-lactamase type ESBL/OXA | Acinetobacter baumannii; A. baumannii isolate CDC 274, β-lactamase type ESBL/OXA | Acinetobacter baumannii; A. baumannii isolate CDC 275, β-lactamase type ESBL/OXA | Acinetobacter baumannii; A. baumannii isolate CDC 307, β-lactamase type OXA | Acinetobacter baumannii; A. baumannii isolate CDC 308, β-lactamase type ESBL/OXA | Acinetobacter baumannii; A. baumannii isolate CDC 311, β-lactamase type OXA | Acinetobacter baumannii; A. baumannii isolate CDC 312, β-lactamase type OXA | Acinetobacter baumannii; A. baumannii isolate CDC 313, β-lactamase type ESBL/OXA | Acinetobacter baumannii; NCTC13304, A. baumannii isolate NCTC 13304, β-lactamase type OXA
4 µg/mL: Klebsiella pneumoniae; [19]
1 µg/mL: Acinetobacter baumannii; A. baumannii isolate CDC 277, β-lactamase type ESBL/OXA | Acinetobacter baumannii; A. baumannii isolate CDC 284, β-lactamase type ESBL/OXA | Escherichia coli; [32] | Escherichia coli; E. coli MMX 5756, ESBL
8 µg/mL: Pseudomonas aeruginosa; [24]
